SMILES strings stand for the structures.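 All cell lines were grown in 96-well plates and treated with compound for 48 hours. GI50 is the concentration that inhibits growth by half.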 Active and inactive are the calls of the source. Cut-off read from the data, not from the text of the source: active = GI50 up to about 1.1 µM and inactive = higher. Where only a bound is given, the exact number is not on record here.

Among the test systems are UO-31; HCT-15; 786-0; SR; OVCAR-8; MCF7; U-251; ACHN; SNB-19; BT-549; NCI-H226; RPMI-8226; LOX IMVI; UACC-257; COLO 205; T47D; UACC-62; NCI/ADR-RES; HOP-62.
Assay in all cases: growth of human tumour cells (NCI), 48 h

Regarding `CC1(O)/C(=N/O)CC2CC1C2(C)C` (stereo not drawn), the GI50 was > 100 µM (inactive) with UO-31; greater than 100 µM with HCT-15; > 100 µM (inactive) in the assay with 786-0; > 10 µM (inactive) in the assay on SR; > 100 µM (inactive) with OVCAR-8; > 100 µM (inactive) in the assay with MCF7. Also, the GI50 in the assay with U-251, in the assay on ACHN, with SNB-19, in the assay on BT-549, with NCI-H226 and in the assay on RPMI-8226 was > 100 µM (inactive) each time. Further, the GI50 with LOX IMVI, in the assay with UACC-257, with COLO 205, in the assay on T47D and in the assay on UACC-62 was > 100 µM (inactive) each time.

As for `O=C1NC2c3c(I)sc(I)c3C(O)C2O1` (stereo not drawn), the GI50 in the assay with UO-31 was > 100 µM (inactive); with HCT-15, greater than 100 µM; in the assay on 786-0, > 100 µM (inactive); in the assay with SR, > 100 µM (inactive); with OVCAR-8, > 100 µM (inactive); in the assay with MCF7, > 100 µM (inactive). The GI50 in the assay with U-251, in the assay on NCI/ADR-RES, in the assay on ACHN, in the assay with SNB-19, in the assay with HOP-62 and in the assay on NCI-H226 was > 100 µM (inactive) each time. In addition, the GI50 with RPMI-8226, in the assay with LOX IMVI, in the assay on UACC-257, in the assay with COLO 205, with T47D and with UACC-62 was > 100 µM (inactive) throughout.

Regarding `Cc1cc(N(CCC#N)CCC#N)ccc1C(/N=N/c1ccc([N+](=O)[O-])cc1)=N\NC(=O)c1cc(Cl)ccc1C(=O)c1ccccc1`, the GI50 in the assay on UO-31 is 10.1 µM (inactive); in the assay with HCT-15, 4.8 µM; in the assay on 786-0, 7.64 µM (inactive); in the assay on OVCAR-8 it was 6.21 µM (inactive); in the assay with MCF7, 4.95 µM (inactive); in the assay with U-251, 13.3 µM (inactive). Also, the GI50 is 12.2 µM (inactive) in the assay with NCI/ADR-RES; 12.2 µM (inactive) in the assay with ACHN; 46.7 µM (inactive) with SNB-19; 18.4 µM (inactive) in the assay on HOP-62; 19 µM (inactive) with BT-549; 10 µM (inactive) in the assay on NCI-H226. The GI50 in the assay on RPMI-8226 is 11 µM (inactive); with UACC-257 it was 32.2 µM (inactive); with COLO 205, 16.2 µM (inactive); with T47D, 5.18 µM (inactive); in the assay on UACC-62, 11.1 µM (inactive).

As for `O=S(=O)(c1ccccc1)c1ccc(-c2nc(-c3ccc4c(c3)Sc3ccccc3S4)cs2)cc1`, the GI50 is > 100 µM (inactive) in the assay on UO-31; greater than 100 µM in the assay on HCT-15; 17.2 µM (inactive) in the assay with 786-0; 32.9 µM (inactive) in the assay with SR; 71.9 µM (inactive) in the assay with OVCAR-8; 61 µM (inactive) in the assay with MCF7. Also, the GI50 in the assay on U-251 is 27.9 µM (inactive); in the assay on ACHN it was 38.7 µM (inactive); with SNB-19, 11.7 µM (inactive); in the assay with HOP-62, 15.9 µM (inactive); with BT-549 it was 30.3 µM (inactive); with NCI-H226 it was 67 µM (inactive). For the same compound, the GI50 is > 100 µM (inactive) in the assay with RPMI-8226; > 100 µM (inactive) in the assay on LOX IMVI; > 100 µM (inactive) in the assay with UACC-257; > 100 µM (inactive) in the assay with COLO 205; 61.8 µM (inactive) in the assay on T47D; 25.6 µM (inactive) in the assay with UACC-62.

`O=C(NC1CCCCC1)N1CCNC1=S`: the GI50 with UO-31 was > 100 µM (inactive); in the assay with HCT-15, greater than 100 µM; with 786-0, > 100 µM (inactive); with SR, > 100 µM (inactive); in the assay on OVCAR-8, > 100 µM (inactive); in the assay on U-251, 1.91 µM (inactive). In addition, the GI50 with NCI/ADR-RES was > 100 µM (inactive); in the assay on ACHN, > 100 µM (inactive); in the assay on HOP-62 it was > 100 µM (inactive); in the assay on BT-549, 66.4 µM (inactive); in the assay on NCI-H226, 45.3 µM (inactive); in the assay on RPMI-8226, 65.6 µM (inactive). The GI50 in the assay with LOX IMVI, with UACC-257, with COLO 205 and in the assay with T47D was > 100 µM (inactive) each time.

Turning to `CC(=O)Nc1ccc(OC/C(N)=N/NC(=O)c2ccncc2)cc1`, the GI50 is greater than 100 µM in the assay on HCT-15; > 100 µM (inactive) with 786-0; > 100 µM (inactive) with OVCAR-8; > 100 µM (inactive) with MCF7; > 100 µM (inactive) in the assay with U-251; > 100 µM (inactive) in the assay with NCI/ADR-RES. For the same compound, the GI50 in the assay with ACHN, in the assay with SNB-19, in the assay with HOP-62, in the assay with BT-549, in the assay on RPMI-8226 and in the assay on LOX IMVI was > 100 µM (inactive) each time. The GI50 with UACC-257, in the assay on COLO 205, in the assay on T47D and in the assay with UACC-62 was > 100 µM (inactive) in each case.

As for `CCC(C)C(NC(=O)c1c2ccccc2nc2ccccc12)C(=O)O` (stereo not drawn), the GI50 in the assay with UO-31 was 25.1 µM (inactive); with HCT-15 it was 41 µM; with 786-0, > 100 µM (inactive); in the assay on SR, > 100 µM (inactive); in the assay on OVCAR-8, > 100 µM (inactive); with MCF7, 98.9 µM (inactive). Also, the GI50 in the assay with U-251 was > 100 µM (inactive); in the assay with NCI/ADR-RES, > 100 µM (inactive); with ACHN it was > 100 µM (inactive); with SNB-19, > 100 µM (inactive); with HOP-62, > 100 µM (inactive); in the assay on BT-549, 22.6 µM (inactive). Also, the GI50 with NCI-H226 is > 100 µM (inactive); in the assay on RPMI-8226 it was > 100 µM (inactive); in the assay with LOX IMVI it was 74 µM (inactive); in the assay on UACC-257, > 100 µM (inactive); with COLO 205, > 100 µM (inactive); in the assay on UACC-62 it was > 100 µM (inactive).

For `N=C(/C=C/c1ccc(-c2cn3cc(/C=C/C(=N)N4CCOCC4)ccc3n2)cc1)N1CCOCC1`, the GI50 was > 100 µM (inactive) in the assay with UO-31; greater than 100 µM in the assay on HCT-15; > 100 µM (inactive) in the assay with 786-0; > 100 µM (inactive) with OVCAR-8; 94 µM (inactive) in the assay with MCF7; > 100 µM (inactive) in the assay with U-251. Also, the GI50 with NCI/ADR-RES, with ACHN, with SNB-19, in the assay on HOP-62, in the assay with BT-549 and with NCI-H226 was > 100 µM (inactive) in each case. The GI50 with RPMI-8226 was 76.4 µM (inactive); with UACC-257, > 100 µM (inactive); in the assay on COLO 205 it was > 100 µM (inactive); in the assay on T47D it was > 100 µM (inactive); with UACC-62 it was > 100 µM (inactive).

`Cc1n[n+](Cc2ccccc2)c2sc(N)nn12`: the GI50 is > 100 µM (inactive) in the assay with UO-31; greater than 100 µM in the assay on HCT-15; > 100 µM (inactive) with 786-0; > 100 µM (inactive) in the assay on OVCAR-8; > 100 µM (inactive) in the assay on MCF7; > 100 µM (inactive) in the assay on U-251. Further, the GI50 in the assay on NCI/ADR-RES is > 100 µM (inactive); with ACHN, > 100 µM (inactive); with SNB-19 it was > 100 µM (inactive); with HOP-62, > 100 µM (inactive); with BT-549 it was 38.4 µM (inactive); with NCI-H226 it was 74 µM (inactive). Moreover, the GI50 with RPMI-8226 is > 100 µM (inactive); in the assay with LOX IMVI, > 100 µM (inactive); with UACC-257, > 100 µM (inactive); in the assay with COLO 205 it was > 100 µM (inactive); with T47D, > 100 µM (inactive); with UACC-62 it was 10.2 µM (inactive).

Take `COc1cc(N(CCC#N)CCC#N)ccc1C(/N=N/c1cccc([N+](=O)[O-])c1)=N\NC(=O)c1ccc(C)cc1`: the GI50 in the assay with UO-31 is 71 µM (inactive); with HCT-15, 80.2 µM; in the assay with 786-0, > 100 µM (inactive); in the assay on OVCAR-8, 89.5 µM (inactive); with MCF7, 45 µM (inactive); in the assay with U-251, > 100 µM (inactive). Further, the GI50 in the assay on NCI/ADR-RES was 67.5 µM (inactive); with ACHN, > 100 µM (inactive); in the assay with SNB-19 it was > 100 µM (inactive); in the assay with HOP-62, > 100 µM (inactive); in the assay on BT-549, 22 µM (inactive); with NCI-H226 it was > 100 µM (inactive). Also, the GI50 is 18.6 µM (inactive) in the assay with RPMI-8226; > 100 µM (inactive) in the assay with LOX IMVI; 14.5 µM (inactive) in the assay with UACC-257; > 100 µM (inactive) in the assay with COLO 205; 27.8 µM (inactive) in the assay on T47D; > 100 µM (inactive) in the assay on UACC-62.

`O=C(Cn1c2ccc(Br)cc2c2nc3ccccc3nc21)N1CCOCC1`: the GI50 with UO-31 is > 100 µM (inactive); in the assay on HCT-15, greater than 100 µM; in the assay on 786-0 it was > 100 µM (inactive); in the assay on OVCAR-8, 44.3 µM (inactive); with U-251, > 100 µM (inactive); in the assay on NCI/ADR-RES it was 47.9 µM (inactive). In addition, the GI50 with ACHN, with SNB-19, with HOP-62, in the assay on BT-549, in the assay on NCI-H226 and with RPMI-8226 was > 100 µM (inactive) each time. Also, the GI50 is 39.8 µM (inactive) with LOX IMVI; > 100 µM (inactive) in the assay on UACC-257; > 100 µM (inactive) in the assay with COLO 205; 25.5 µM (inactive) in the assay with T47D; > 100 µM (inactive) in the assay on UACC-62.

Regarding `Cc1ccc2c(=O)c3cccc(CC(=O)O)c3[nH]c2c1C`, the GI50 in the assay on UO-31 is > 100 µM (inactive); with HCT-15 it was greater than 100 µM; with 786-0 it was > 100 µM (inactive); in the assay with SR, > 100 µM (inactive); with OVCAR-8, > 100 µM (inactive); in the assay with MCF7 it was 71.6 µM (inactive). Moreover, the GI50 was 27.9 µM (inactive) in the assay on U-251; > 100 µM (inactive) in the assay with NCI/ADR-RES; > 100 µM (inactive) in the assay on ACHN; > 100 µM (inactive) in the assay on SNB-19; > 100 µM (inactive) with HOP-62; > 100 µM (inactive) with BT-549. In addition, the GI50 in the assay with NCI-H226, in the assay on RPMI-8226, in the assay with LOX IMVI, with UACC-257, with COLO 205 and in the assay on UACC-62 was > 100 µM (inactive) throughout.

Values taken from ChEMBL document CHEMBL1201862, “PubChem BioAssay data set” (2004).
